Holding throughout (assay type): cell-based
Experiment [1] concerns HER2 positive tumor cells NCI-N87. Nature of the experiment: Proliferation inhibition of NCI-N87 cells by DXD and DDDXD (CCK-8). The note with it: Homo sapiens, NCI-N87, 120 h. As to the method:
DXD and DDDXD were pre-diluted to 140,000 ng/mL in culture medium and labeled as S1, and then five-fold serially diluted to obtain their corresponding reference samples S1-S9; the final drug concentration range was 35000 ng/mL to 0.0896 ng/mL with 9 concentrations in total. HER2 positive tumor cells NCI-N87 in the logarithmic growth phase were collected, adjusted to a density of 1×10^5 cells/mL, and plated at 100 μL per well, and a blank well without any cells was set as a control. The above serially diluted two samples were added at 50 μL per well. The plate was incubated in an incubator at 37° C. with 5% CO2 for 5 days. The culture medium was discarded, and CCK-8 (Dojindo, Japan, Cat. No. CK04) working solution was added at 100 μL per well. The plate was incubated for 4-5 h for color developing and placed in a microplate reader (manufacturer: Thermo, Model: VarioskanFlash). The absorbance values at a wavelength of 450 nm were read and recorded using a reference wavelength of 630 nm. The proliferation inhibition against the tumor cells were calculated.

Experiment [2] deals with NCI-N87 Her2++ tumor cells. Nature of the experiment: Killing of Her2 positive target cell NCI-N87 with human PBMC effector cells (ADCC, CytoTox96). The note with it: effector-to-target ratio 10:1.
Protocol: The killing effects of the anti-Her2 bispecific antibodies on target cells (NCI-N87 Her2++, source: the Cell Bank of Type Culture Collection Committee of the Chinese Academy of Sciences) were studied using NK cells provided by human PBMCs (peripheral blood mononuclear cells), and the in vitro activity of the anti-Her2 bispecific antibodies was assessed by EC50 value.
The specific procedures are as follows: NCI-N87 cells were adjusted to a cell density of 3×10^5 cells/mL using 1640 medium containing 2% FBS (fetal bovine serum) and seeded in a 96-well cell culture plate (eppendorf, Cat. No. 0030730199) at 50 μL per well. […] Human PBMCs were adjusted to a cell density of 1.5×10^6 cells/mL using medium for experiment and added at 100 μL per well. An administration group (target cell+effector cell+antibody or control drug), a target cell group (NCI-N87 cell), an effector cell group (human PBMC), a target cell+effector cell group, a blank control group (medium) and a lysis solution control group, and a target cell maximum release group (target cell+lysis solution) were set, with the effector-to-target cell ratio being 10:1. […] After 45 min, the cell lysis rates were measured using a CytoTox96® nonradioactive cytotoxicity assay (Promega, G1780). […]
For another experiment, the system named is JIMT-1 tumor cells. Nature of the experiment: Killing of trastuzumab-resistant cell JIMT-1 with human PBMC effector cells (ADCC, CytoTox96). The following applies: effector-to-target ratio 20:1.

Protocol for JIMT-1 tumor cells: The killing effects of the anti-Her2 bispecific antibodies on target cells (JIMT-1, source: AddexBio, Cat. No. C0006005) were studied using NK cells provided by human PBMCs (peripheral blood mononuclear cells), and the in vitro activity of the anti-Her2 bispecific antibodies was assessed by EC50 value.
The specific procedures are as follows: JIMT-1 cells were adjusted to a cell density of 3×10^5 cells/mL using 1640 medium containing 2% FBS (fetal bovine serum) and seeded in a 96-well cell culture plate (eppendorf, Cat. No. 0030730199) at 50 μL per well. […] Human PBMCs were adjusted to a cell density of 1.5×10^6 cells/mL using medium for experiment and added at 100 μL per well. An administration group (target cell+effector cell+antibody or control drug), a target cell group (JIMT-1BT474 cell), an effector cell group (human PBMC), a target cell+effector cell group, a blank control group (medium) and a lysis solution control group, and a target cell maximum release group (target cell+lysis solution) were set, with the effector-to-target cell ratio being 20:1. 45 min prior to the assay, 20 μL/well of lysis solution (Promega, Cat. No. G182A) was added to the target cell maximum release group and the lysis solution control group. After 45 min, the cell lysis rates were measured using a CytoTox96® nonradioactive cytotoxicity assay (Promega, G1780). […]

As for `CC[C@@]1(O)C(=O)OCc2c1cc1n(c2=O)Cc2c-1nc1cc(F)c(C)c3c1c2[C@@H](NC(=O)CO)CC3` [DXD], the IC50 in experiment [1] was 4.45 nM.
For T-DM1, the EC50 was 0.0739 nM in experiment [2] and 0.0836 nM with JIMT-1 tumor cells.

The record behind these values is patent publication US12622977B2, “Antibody drug conjugate” (CHIA TAI TIANQING PHARMACEUTICAL GROUP CO., LTD., priority 2020, dated 2026).
